Reference: patent US20120220581A1, “IMIDAZO[1,2-b]PYRIDAZINE DERIVATIVES AND THEIR USE AS PDE10 INHIBITORS” (Janssen-Cilag, S.A., priority 2009, published 2012)
Like-named read-outs stand apart in the source and are kept apart here.

Key:
[1] = system: female hooded-Lister rats; assay: Object recognition test (NOR) after sub-chronic PCP; format: in vivo, rat; conditions: PCP + 1 mg/kg p.o., Day 1, 3 min retention trial, mean
[2] = system: female hooded-Lister rats; assay: as above; format: in vivo, rat
Description: 60 female hooded-Lister rats (Charles River, UK) were used as subjects for these studies and weighed 248 g±20 g. Rats were allowed at least a 7-day acclimatization period to the animal unit prior to commencement of experimentation. Rats were housed in groups of 5 under standard laboratory conditions under a 12 h light:dark cycle, lights on at 0700 h. All testing was carried out in the light phase. Food and water were freely provided. All experiments were conducted in accordance with the Animals Scientific Procedures Act, U.K. 1986 and were approved by the University of Bradford ethical review panel.
40 mg of test compound was dissolved in 5 ml of 40% hydroxypropyl β-cyclodextrin (HPBC) solution. The solution was sonicated until completely dissolved. 2 ml of sterile water was added and the pH measured and adjusted with NaOH solution (0.1N) to obtain pH ˜4. Finally, sterile water was added to a final volume of 10 ml. This stock solution was then diluted in 20% HPBC to obtain the final concentrations. 100 mg of PQ10 was dissolved in a 40% HPBC solution and 8 mg of tartaric acid. The solution was sonicated until completely dissolved. 5 ml of sterile water was added and the pH measured and adjusted with NaOH solution (0.1N) to obtain pH ˜4. Finally sterile water was added to a final volume of 10 ml.
Test compound was administered at doses of 0.3 and 1.0 mg/kg via the oral route 30 min prior to testing.
PQ10 was administered at a dose of 1.0 mg/kg via the oral route 30 min prior to testing.
Certain pre-clinical tests allow the observation of relatively subtle cognitive deficits in the rat that resemble cognitive symptoms in subjects with schizophrenia. The cognitive deficits observed are seen in behaviours such as episodic memory, which can be measured by recognition tasks such as the novel object recognition (NOR) paradigm. A recognition memory task allows the comparison between presented stimuli and previously stored information. Ennaceur, A Delacour, J (1988) A new one-trial test for neurobiological studies of memory in rats Behav Brain Res 31: 47-59 described the NOR test in rats which was based on the differential exploration of familiar and new objects. The NOR test is a non-rewarded, ethologically relevant paradigm based on the spontaneous exploratory behaviour of rats that measures episodic memory. Each session consists of two trials. In the first trial, the rats are exposed to two identical objects in an open field. During the second trial, rats are exposed to two dissimilar objects, one familiar object from the first trial and one new object. Object recognition in rats can be measured as the difference in time spent exploring the familiar and the new object. […] The duration of each trial is also important as a preference for the novel object only lasts during the first 1 or 2 minutes, after which time preference diminishes as both objects become familiar and are explored equally.
Rats were randomly assigned to the 8 treatment groups
Rats were allowed to habituate to the empty test box and the behavioural test room environment for 1 h on day 1. Prior to behavioural testing on day 2 rats were given a further 3 min habituation.
Following the 3 min habituation period, the rats were given two 3 min trials (T1 and T2) which were separated by a 1 min inter-trial interval in the home cage during which the objects were changed.
In this trial, the animals were allowed to explore two identical objects (A1 and A2) for 3 min.
In this trial, the animals explored a familiar object (A) from T1 and a novel object (B) for 3 min. The familiar object presented during T2 was a duplicate of the object presented in T1 in order to avoid any olfactory trails.
The object exploration was defined by animals licking, sniffing or touching the object with the forepaws whilst sniffing, but not leaning against, turning around, standing or sitting on the object. […]

[3] = biological target: T1, Rat recombinant PDE10A (rPDE10A2) (Rattus norvegicus, UniProt Q9QYJ6); assay: In vitro assay PDE10A (SPA, 3H-cAMP); format: biochemical
T1 construct: inferred from the Ni metal chelate purification; made in house; host or cells: Sf9 insect cells (baculovirus)
T1 sequence (Q9QYJ6 1-794): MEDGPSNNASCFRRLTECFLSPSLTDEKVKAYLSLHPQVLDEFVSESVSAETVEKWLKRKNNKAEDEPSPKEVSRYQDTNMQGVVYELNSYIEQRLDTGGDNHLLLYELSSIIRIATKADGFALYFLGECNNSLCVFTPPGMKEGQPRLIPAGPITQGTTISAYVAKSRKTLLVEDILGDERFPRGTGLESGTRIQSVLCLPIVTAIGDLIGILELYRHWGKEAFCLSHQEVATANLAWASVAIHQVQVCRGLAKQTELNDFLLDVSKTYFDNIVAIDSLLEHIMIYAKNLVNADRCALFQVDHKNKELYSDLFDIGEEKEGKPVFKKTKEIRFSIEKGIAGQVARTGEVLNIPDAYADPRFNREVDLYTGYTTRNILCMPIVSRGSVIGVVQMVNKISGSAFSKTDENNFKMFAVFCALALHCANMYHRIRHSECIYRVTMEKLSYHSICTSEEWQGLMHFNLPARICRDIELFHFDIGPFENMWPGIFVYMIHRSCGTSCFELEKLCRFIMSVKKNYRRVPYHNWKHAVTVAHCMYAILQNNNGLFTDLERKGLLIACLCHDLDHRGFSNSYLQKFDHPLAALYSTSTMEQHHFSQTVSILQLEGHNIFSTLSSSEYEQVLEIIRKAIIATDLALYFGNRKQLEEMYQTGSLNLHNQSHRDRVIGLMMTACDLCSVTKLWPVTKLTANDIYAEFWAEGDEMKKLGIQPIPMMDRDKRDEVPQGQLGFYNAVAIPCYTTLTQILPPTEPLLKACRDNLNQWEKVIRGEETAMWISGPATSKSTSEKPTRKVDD
Outline: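 Rat PDE10A2 expressed in Sf9 cells and Ni-purified; incubated with 60 nM cAMP plus 0.008 μCi 3H-cAMP in 50 mM Tris pH 7.8, 8.3 mM MgCl2, 1.7 mM EGTA for 60 min at room temperature. Product quantified by scintillation proximity counting; final DMSO 1%.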

[4] = system: apomorphine-induced stereotypy in rats; assay: Apomorphine-induced stereotypy in rats (APO); format: in vivo; conditions: Rattus norvegicus
Description: Apomorphine (1.0 mg/kg, i.v.)-induced stereotypy (compulsive sniffing, licking, chewing) was scored every 5 min over the first hour after injection of apomorphine, following a 1 hour interval pre-treatment with the test compound. The score system was: (3) pronounced, (2) moderate, (1) slight, and (0) absent.

[5] = biological target: other members of the PDE family (Homo sapiens, UniProt O76083); assay: In vitro PDE selectivity assay (SPA), other members of the PDE family (protocols in Table A); format: biochemical; conditions: hPDE9A; read-out: PDE 9A (expressed as pIC50) (converted)
other members of the PDE family (Homo sapiens, UniProt O76083), sequence (O76083 whole entry, canonical isoform): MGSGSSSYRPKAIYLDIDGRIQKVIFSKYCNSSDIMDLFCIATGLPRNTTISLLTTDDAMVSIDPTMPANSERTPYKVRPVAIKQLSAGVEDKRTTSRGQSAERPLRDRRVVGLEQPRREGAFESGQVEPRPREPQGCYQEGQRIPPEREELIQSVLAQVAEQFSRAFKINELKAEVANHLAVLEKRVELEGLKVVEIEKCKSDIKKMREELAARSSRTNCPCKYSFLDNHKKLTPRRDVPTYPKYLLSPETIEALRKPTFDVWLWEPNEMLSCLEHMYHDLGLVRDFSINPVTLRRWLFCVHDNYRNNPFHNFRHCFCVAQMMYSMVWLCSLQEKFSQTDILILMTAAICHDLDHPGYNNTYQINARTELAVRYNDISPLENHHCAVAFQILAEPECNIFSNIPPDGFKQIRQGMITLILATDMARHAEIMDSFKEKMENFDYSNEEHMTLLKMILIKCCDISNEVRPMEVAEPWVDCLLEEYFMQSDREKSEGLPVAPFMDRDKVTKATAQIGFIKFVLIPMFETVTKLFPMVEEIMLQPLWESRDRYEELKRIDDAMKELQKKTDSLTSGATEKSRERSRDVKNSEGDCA
Outline: (§1)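 Inhibition of each PDE isoform was measured by scintillation proximity assay with ³H-cyclic nucleotide substrate, using incubation buffer, substrate concentration, incubation time and stop solution adapted per isoform. Compounds were tested in dose-response against 1% DMSO controls and enzyme-free blanks. IC50 came from a least-squares fit of blank-subtracted % of control versus concentration.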

[6] = biological target: other members of the PDE family (Homo sapiens, UniProt Q14432); assay: as above; format: biochemical; conditions: hPDE3A; read-out: PDE 3A (expressed as pIC50) (converted)
other members of the PDE family (Homo sapiens, UniProt Q14432), sequence (Q14432 whole entry): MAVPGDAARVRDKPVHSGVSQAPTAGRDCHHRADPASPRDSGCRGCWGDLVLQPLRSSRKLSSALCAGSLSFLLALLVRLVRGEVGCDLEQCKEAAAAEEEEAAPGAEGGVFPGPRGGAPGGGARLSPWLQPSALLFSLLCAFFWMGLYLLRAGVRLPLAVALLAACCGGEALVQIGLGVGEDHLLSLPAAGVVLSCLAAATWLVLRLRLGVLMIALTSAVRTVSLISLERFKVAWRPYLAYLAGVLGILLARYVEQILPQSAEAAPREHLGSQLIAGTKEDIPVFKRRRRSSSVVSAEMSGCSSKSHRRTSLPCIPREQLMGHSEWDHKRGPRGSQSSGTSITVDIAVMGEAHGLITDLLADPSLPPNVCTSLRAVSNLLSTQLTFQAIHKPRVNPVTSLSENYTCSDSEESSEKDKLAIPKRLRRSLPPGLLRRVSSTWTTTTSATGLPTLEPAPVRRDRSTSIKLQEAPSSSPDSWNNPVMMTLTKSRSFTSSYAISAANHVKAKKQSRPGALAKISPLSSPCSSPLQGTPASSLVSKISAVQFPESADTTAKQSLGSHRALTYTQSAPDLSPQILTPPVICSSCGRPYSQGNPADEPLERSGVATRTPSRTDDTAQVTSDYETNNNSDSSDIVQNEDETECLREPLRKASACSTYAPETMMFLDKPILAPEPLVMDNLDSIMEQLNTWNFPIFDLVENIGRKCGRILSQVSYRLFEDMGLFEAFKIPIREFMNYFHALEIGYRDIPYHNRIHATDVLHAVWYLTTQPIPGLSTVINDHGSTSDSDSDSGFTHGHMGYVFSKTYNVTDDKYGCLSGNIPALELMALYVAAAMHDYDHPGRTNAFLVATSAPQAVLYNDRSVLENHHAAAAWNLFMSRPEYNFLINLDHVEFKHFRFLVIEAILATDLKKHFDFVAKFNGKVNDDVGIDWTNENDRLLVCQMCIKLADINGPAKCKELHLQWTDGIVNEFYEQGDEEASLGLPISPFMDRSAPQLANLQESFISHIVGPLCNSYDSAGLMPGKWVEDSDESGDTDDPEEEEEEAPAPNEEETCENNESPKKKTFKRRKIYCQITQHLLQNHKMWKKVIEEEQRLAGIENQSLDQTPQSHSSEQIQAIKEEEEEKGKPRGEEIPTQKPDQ
Outline: as §1

[7] = biological target: other members of the PDE family (Homo sapiens, UniProt P16499+P35913); assay: as above; format: biochemical; conditions: hPDE6AB; read-out: PDE 6AB (expressed as pIC50) (converted)
Outline: as §1

[8] = biological target: other members of the PDE family (Homo sapiens, UniProt Q13946); assay: as above; format: biochemical; conditions: hPDE7A1; read-out: PDE 7A (expressed as pIC50) (converted)
other members of the PDE family (Homo sapiens, UniProt Q13946), sequence (Q13946 whole entry): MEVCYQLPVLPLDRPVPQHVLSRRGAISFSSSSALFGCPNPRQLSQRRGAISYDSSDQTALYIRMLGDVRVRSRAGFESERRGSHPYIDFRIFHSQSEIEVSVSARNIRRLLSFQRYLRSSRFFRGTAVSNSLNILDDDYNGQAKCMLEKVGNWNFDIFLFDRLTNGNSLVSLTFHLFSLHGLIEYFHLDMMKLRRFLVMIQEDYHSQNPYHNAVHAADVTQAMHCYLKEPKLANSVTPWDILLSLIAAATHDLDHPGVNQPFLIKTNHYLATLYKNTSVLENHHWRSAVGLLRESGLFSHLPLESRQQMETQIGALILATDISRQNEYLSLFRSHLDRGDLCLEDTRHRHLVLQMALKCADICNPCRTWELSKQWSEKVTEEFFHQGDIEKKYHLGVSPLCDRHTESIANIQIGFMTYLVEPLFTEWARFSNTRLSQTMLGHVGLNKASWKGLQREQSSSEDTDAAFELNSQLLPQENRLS
Outline: as §1

[9] = biological target: other members of the PDE family (Homo sapiens, UniProt Q9HCR9); assay: as above; format: biochemical; conditions: hPDE11A4; read-out: PDE 11A4 (expressed as pIC50) (converted)
other members of the PDE family (Homo sapiens, UniProt Q9HCR9), sequence (Q9HCR9 whole entry): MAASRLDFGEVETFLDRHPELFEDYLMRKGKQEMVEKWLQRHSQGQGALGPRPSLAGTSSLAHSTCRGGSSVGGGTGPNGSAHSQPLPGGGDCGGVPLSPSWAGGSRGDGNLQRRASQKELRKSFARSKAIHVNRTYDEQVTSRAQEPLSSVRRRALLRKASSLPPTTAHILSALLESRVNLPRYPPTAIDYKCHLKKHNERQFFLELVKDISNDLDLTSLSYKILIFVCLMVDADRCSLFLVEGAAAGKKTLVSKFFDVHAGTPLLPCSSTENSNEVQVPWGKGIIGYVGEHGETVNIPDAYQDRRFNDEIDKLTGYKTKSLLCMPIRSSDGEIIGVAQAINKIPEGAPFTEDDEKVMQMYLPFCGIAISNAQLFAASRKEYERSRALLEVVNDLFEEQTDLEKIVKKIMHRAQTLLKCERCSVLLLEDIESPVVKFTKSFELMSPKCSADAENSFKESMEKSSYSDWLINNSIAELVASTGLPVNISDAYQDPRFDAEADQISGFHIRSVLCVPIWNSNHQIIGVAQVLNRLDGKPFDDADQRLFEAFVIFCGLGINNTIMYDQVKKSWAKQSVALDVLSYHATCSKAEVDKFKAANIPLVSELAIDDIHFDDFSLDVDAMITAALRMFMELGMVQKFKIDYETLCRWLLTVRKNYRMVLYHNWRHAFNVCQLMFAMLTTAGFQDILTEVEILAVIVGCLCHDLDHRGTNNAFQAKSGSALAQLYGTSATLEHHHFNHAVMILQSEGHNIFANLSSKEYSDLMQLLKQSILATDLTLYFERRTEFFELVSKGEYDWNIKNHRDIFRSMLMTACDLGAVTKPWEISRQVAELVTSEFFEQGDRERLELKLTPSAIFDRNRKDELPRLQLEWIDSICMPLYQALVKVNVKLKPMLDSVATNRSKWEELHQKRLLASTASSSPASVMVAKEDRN
Outline: as §1

[10] = biological target: other members of the PDE family (Homo sapiens, UniProt O60658); assay: as above; format: biochemical; conditions: hPDE8A1; read-out: PDE 8A1 (expressed as pIC50) (converted)
Outline: as §1

[11] = biological target: other members of the PDE family (Homo sapiens, UniProt O00408); assay: as above; format: biochemical; conditions: hPDE2A; read-out: PDE 2A (expressed as pIC50) (converted)
other members of the PDE family (Homo sapiens, UniProt O00408), sequence (O00408 whole entry): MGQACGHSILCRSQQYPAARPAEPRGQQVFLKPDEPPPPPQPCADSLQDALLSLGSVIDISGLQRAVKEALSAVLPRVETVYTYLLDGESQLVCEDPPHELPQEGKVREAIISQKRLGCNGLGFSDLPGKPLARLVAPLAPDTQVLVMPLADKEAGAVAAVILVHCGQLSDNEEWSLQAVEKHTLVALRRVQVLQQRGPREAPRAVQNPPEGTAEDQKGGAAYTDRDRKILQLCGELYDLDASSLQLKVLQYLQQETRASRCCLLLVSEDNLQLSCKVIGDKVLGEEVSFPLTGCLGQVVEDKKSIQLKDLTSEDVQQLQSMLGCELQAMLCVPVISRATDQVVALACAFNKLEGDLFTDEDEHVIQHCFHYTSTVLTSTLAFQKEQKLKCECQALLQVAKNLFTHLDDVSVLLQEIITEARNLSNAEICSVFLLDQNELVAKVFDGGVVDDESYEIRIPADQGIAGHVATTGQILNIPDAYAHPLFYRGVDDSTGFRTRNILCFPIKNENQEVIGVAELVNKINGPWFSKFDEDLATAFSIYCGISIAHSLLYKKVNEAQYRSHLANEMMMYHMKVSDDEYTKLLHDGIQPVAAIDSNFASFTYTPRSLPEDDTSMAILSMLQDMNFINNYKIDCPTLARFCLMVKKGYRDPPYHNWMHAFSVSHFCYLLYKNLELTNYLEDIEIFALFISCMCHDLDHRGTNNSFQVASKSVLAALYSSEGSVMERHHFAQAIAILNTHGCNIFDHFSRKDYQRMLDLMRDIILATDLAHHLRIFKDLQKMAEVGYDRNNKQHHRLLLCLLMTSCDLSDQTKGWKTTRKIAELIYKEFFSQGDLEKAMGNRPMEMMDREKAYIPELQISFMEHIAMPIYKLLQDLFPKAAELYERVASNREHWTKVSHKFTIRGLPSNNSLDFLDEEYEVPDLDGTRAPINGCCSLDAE
Outline: as §1

PDE5A3 = PDE5A3 (Homo sapiens, UniProt O76074); assay: In vitro PDE selectivity assay (SPA), PDE5A3; format: biochemical; conditions: hPDE5A3; read-out: PDE 5A3 (expressed as pIC50) (converted)
Outline: as §1

PDE4D3 = PDE4D3 (Homo sapiens, UniProt Q08499); assay: In vitro PDE selectivity assay (SPA), PDE4D3; format: biochemical; conditions: hPDE4D3; read-out: PDE 4D3 (expressed as pIC50) (converted)
PDE4D3, sequence (Q08499 1-673 isoform Q08499-2): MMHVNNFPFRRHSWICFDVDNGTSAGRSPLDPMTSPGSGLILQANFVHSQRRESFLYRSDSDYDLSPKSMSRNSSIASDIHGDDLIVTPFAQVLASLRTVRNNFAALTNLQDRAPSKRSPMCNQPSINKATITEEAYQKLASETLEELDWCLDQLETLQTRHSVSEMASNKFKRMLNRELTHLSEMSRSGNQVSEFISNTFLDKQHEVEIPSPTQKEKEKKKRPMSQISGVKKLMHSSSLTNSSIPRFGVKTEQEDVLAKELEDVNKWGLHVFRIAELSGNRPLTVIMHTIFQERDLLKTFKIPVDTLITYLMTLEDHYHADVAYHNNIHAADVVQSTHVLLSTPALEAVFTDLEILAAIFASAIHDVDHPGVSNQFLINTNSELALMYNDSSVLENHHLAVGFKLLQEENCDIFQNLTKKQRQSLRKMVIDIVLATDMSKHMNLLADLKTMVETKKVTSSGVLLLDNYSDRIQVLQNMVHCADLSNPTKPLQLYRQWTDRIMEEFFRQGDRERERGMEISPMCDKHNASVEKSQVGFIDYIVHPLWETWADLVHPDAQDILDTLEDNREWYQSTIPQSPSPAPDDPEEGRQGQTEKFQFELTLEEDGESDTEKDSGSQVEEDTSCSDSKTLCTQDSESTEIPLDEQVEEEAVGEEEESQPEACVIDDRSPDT
Outline: as §1

PDE1B1 = PDE1B1 (Homo sapiens, UniProt Q01064); assay: In vitro PDE selectivity assay (SPA), PDE1B1; format: biochemical; conditions: hPDE1B1; read-out: PDE 1B1 (expressed as pIC50) (converted)
[12] = pIC50 corresponds to the −log IC50 expressed in mol/L, read-out: PDE10A2 pIC50 (converted)
[13] = Table 4 in vitro selectivity, read-out: PDE 10A2 (expressed as pIC50) (converted)
[14] = dose at which 50% of the tested animals show the effect, ≧: active in 30% of the animals at the indicated dose, ≦: active in 60%

| melting point | IC50 [3, 12] [µM] | IC50 [5] [µM] | IC50 [6] [µM] | IC50 [7] [µM] | IC50 [8] [µM] | IC50 [9] [µM] | IC50 [10] [µM] | IC50 [11] [µM] | IC50 (PDE5A3) [µM] | IC50 (PDE4D3) [µM] | IC50 [3, 13] [µM] | IC50 (PDE1B1) [µM] | SMILES | T2(A) exploration time of familiar object, retention trial [1] [s] | T2(B) exploration time of novel object, retention trial [1] [s] | DI (discrimination index) ([2]; PCP + 1 mg/kg p.o., mean) | LMA (no. of lines crossed) ([2]; PCP + 1 mg/kg p.o., mean) | effects of acute treatment in the NOR task ([2]; acute treatment, oral route 30 min prior to testing, compound 1 0.3-1.0 mg/kg, PQ10 1.0 mg/kg, sub-chronic PCP female rats) | ED50 ([4]; n.d.: found not active at threshold dose 2.5 mg/kg or 10 mg/kg (a), not further tested) [mg/kg] | ED50 [4, 14] [mg/kg] |
| --- | --- | --- | --- | --- | --- | --- | --- | --- | --- | --- | --- | --- | --- | --- | --- | --- | --- | --- | --- | --- |
| – | – | – | – | – | – | – | – | – | – | – | – | – | COc1cc2ncnc(N3CC[C@@H](Oc4cnc5ccccc5n4)C3)c2cc1OC [PQ10, reference compound] | 7.9 | 19.9 | 0.4193 | 65.5 no. of lines crossed | selective for the retention phase | – | – |
| > 300 °C (dec.) | 0.0603 | – | – | – | – | – | – | – | – | – | – | – | Cc1nc2c(-c3ccncc3)ccnn2c1-c1ccc(N2CCOCC2)nc1 [compound 31, 2-methyl-3-[6-(4-morpholinyl)-3-pyridinyl]-8-(4-pyridinyl)-imidazo[1,2-b]pyridazine] | – | – | – | – | – | > 2.5 | – |
| – | 0.0562 | > 10 | > 10 | > 10 | > 10 | > 10 | > 10 | > 10 | > 10 | > 10 | 0.0562 | – | COCCn1cc(-c2c(C)nc3c(N4CCOCC4)ccnn23)cn1 [compound 36, 3-[1-(2-methoxyethyl)-1H-pyrazol-4-yl]-2-methyl-8-(4-morpholinyl)-imidazo[1,2-b]pyridazine] | – | – | – | – | – | – | 5 |
| – | 0.339 | > 10 | > 10 | – | > 10 | > 10 | – | 7.94 | 2.69 | > 10 | 0.339 | > 10 | c1cc(-c2ccnn3c(-c4ccc(N5CCOCC5)nc4)cnc23)ccn1 [compound 61, 3-[6-(4-morpholinyl)-3-pyridinyl]-8-(4-pyridinyl)-imidazo[1,2-b]pyridazine] | – | – | – | – | – | – | 1.2 |
